In one series the test system is human skin. Kind of series: Skin penetration test in diffusion cell. The class given is in vitro ADME. Particulars: for penetration into or through the skin (UV analysis of DMSO skin extracts), in words / penetration through the skin (UV-analysis of collected receptor fluids), in words: human skin, diffusion cell; for penetration through the skin (UV-analysis of collected receptor fluids), in words: 20 hrs. Here is the method: The skin-penetration was evaluated based on the same method described on page 21 of WO2006/009451. FIG. 2 is a drawing of the skin penetration test equipment, wherein (1) indicates the position of the test sample (donor compound), (2) an ⅛″ OD× 1/32″ wall tubing, (3) the receptor input, (4) the receptor compartment and (5) the compound and receptor output that is subjected to analysis.
A compound 3 donor solution was prepared by dissolving 30 mg of compound 3 in 4 ml EtOH and 7 ml phosphate buffer (PBS) at pH 7.4. Compound 4, 6, 7, 8 and 9 donor solutions were prepared by dispersing 80 mg of these compounds in olive oil.
For each compound 4 pieces of human skin (Ø ca 3 cm, mostly epidermis) were applied on a dialysis membrane and mounted into the diffusion cell shown in the FIG. 2. The figure is a schematic drawing of the diffusion cell, wherein is indicated 1: donor compound, 2: receptor compartment, 3: receptor input, 4: compound and receptor output for analysis, 5: ⅛″ OD× 1/32″ wall tubing. The cells were mounted on a temperature controlling and stirring device. The temperature was kept at 37°. The receptor fluid was a PBS buffer. The receptor compartment was stirred magnetically. 400 μl of the donor solution was applied. The receptor fluid flowing at a speed of 1 ml/hr was collected into glass tubes (1 tube/2 hrs). After 20 hrs the penetration experiment was terminated.
Furthermore the skin parts were extracted with DMSO to dissolve any UV-absorber in the epidermis. The extracts were analysed by UV.

Series [1] in a line: Heat stability test (UV-absorption left after storage at 50° C.). Type of series: physicochemical. Particulars: for Heat stability: UV-absorption left after 5 days: 5 days at 50° C. in the dark; for Heat stability: UV-absorption left after 5 days / Heat stability: UV-absorption left after 50 days / Heat stability: UV-absorption left after 100 days: 1.5% in C12-C15 alkyl benzoate oil (compound 12: 5% in water), 375 nm versus sample stored at room temperature; for Heat stability: UV-absorption left after 50 days: 50 days at 50° C. in the dark; for Heat stability: UV-absorption left after 100 days: 100 days at 50° C. in the dark; for heat stability, in words: in C12-C15 alkylbenzoate oils. How it is done: Hereto, 1.5% solutions were prepared of compounds 4-11 and 13 in C12-C15 alkyl benzoate oil. […] The solutions were stored in closed vessels at 50° C. in the dark. After 5, 50 and 100 days, the UV-absorption of a diluted sample was measured at 375 nm comparative to a corresponding sample stored at room temperature. The UV-absorption left after each time span is shown in Table 4 indicated by + and − signs. ++ means >95% left, +− implies between 50-95% left, − indicates <50% left.

Series [2] is described as follows: Solubility test in C12-C15 alkyl benzoate oil (Finsolv TN). Particulars: dissolved at 80° C. for 1 hour, cooled to room temperature, inspected after 24 hours; for Solubility in Finsolv TN, dissolved amount (m/m %) 1%: 1% m/m; for Solubility in Finsolv TN, dissolved amount (m/m %) 5%: 5% m/m; for Solubility in Finsolv TN, dissolved amount (m/m %) 20%: 20% m/m; for Solubility in Finsolv TN, dissolved amount (m/m %) 50%: 50% m/m; for Solubility in Finsolv TN, dissolved amount (m/m %) 80%: 80% m/m; for Solubility in Finsolv TN, dissolved amount (m/m %) 90%: 90% m/m. Also noted: key to Solubility in Finsolv TN, dissolved amount (m/m %) 1% / Solubility in Finsolv TN, dissolved amount (m/m %) 5% / Solubility in Finsolv TN, dissolved amount (m/m %) 20% / Solubility in Finsolv TN, dissolved amount (m/m %) 50% / Solubility in Finsolv TN, dissolved amount (m/m %) 80% / Solubility in Finsolv TN, dissolved amount (m/m %) 90%: +=well-soluble; −=not soluble. Type of series: physicochemical. How it is done: The aminobutadiene compounds according to the present invention have an optimised solubility for cosmetic oils. […] In Table 3, the solubility of compounds 4, 12 and 13 is shown at various concentrations (+=well-soluble; -=not soluble). The compounds were dissolved at 80° C. while stirring for 1 hour and cooled down to room temperature. After 24 hours the solutions were inspected for any precipitates or crystals.

Entries after “also recorded” stand apart in the source; their conditions may differ.

The source of these data is patent publication US8318980B2, “UV absorbing compounds” (Fujifilm Manufacturing Europe B.V., priority 2007, dated 2012).

As to `CCCCCCCCOC(=O)C(=CC=CN(CCCC)CCCCCCN(C=CC=C(C(=O)OCCCCCCCC)S(=O)(=O)c1ccccc1)CCCCCCN(C=CC=C(C(=O)OCCCCCCCC)S(=O)(=O)c1ccccc1)CCCC)S(=O)(=O)c1ccccc1` [Compound 6], in the series with human skin, the “penetration into or through the skin (UV analysis of DMSO skin extracts), in words” value (“penetration into or through the skin” for short) is “do not penetrate into or through the skin” and the “penetration through the skin (UV-analysis of collected receptor fluids), in words” value (“penetration through the skin” for short) was “no penetration”. In series [1], the “Heat stability: UV-absorption left after 5 days” value (shortened to “Heat stability … after 5 days”) is “++ (++ means >95% left)”; the “Heat stability: UV-absorption left after 50 days” value (“Heat stability … after 50 days” for short) is listed as “++ (++ means >95% left)”; the “Heat stability: UV-absorption left after 100 days” value (“Heat stability … after 100 days” for short) was “++ (++ means >95% left)”; the “heat stability, in words” value is “very heat stable”.

Take `CCCCCCCCOC(=O)C(=CC=CN(C(C)=O)c1ccccc1)S(=O)(=O)c1ccccc1` [aminobutadiene 3, reference compound]: in the series on human skin (human skin (mostly epidermis), 37°, PBS receptor fluid, compound 3 donor in EtOH/PBS pH 7.4, others dispersed in olive oil, UV-analysis), the “Presence in receptor fluid after 6 h” value is recorded as “+ (a ‘+’ means that more than 50% of the substance penetrates the skin)”. In addition, in the series with human skin, the “penetration into or through the skin” value is reported as “observed inside the skin sample” and the “penetration through the skin” value is “penetration”. Besides, the “Presence in skin extract” value in the series with human skin (skin parts extracted with DMSO after the penetration experiment, UV analysis) was “+ (a ‘+’ means that more than 50% of the substance penetrates the skin)”.

`CCCCCCCCOC(=O)C(=CC=CN(CCN(CCN(C=CC=C(C(=O)OCCCCCCCC)S(=O)(=O)c1ccccc1)Cc1ccccc1)CCN(C=CC=C(C(=O)OCCCCCCCC)S(=O)(=O)c1ccccc1)Cc1ccccc1)Cc1ccccc1)S(=O)(=O)c1ccccc1` [Compound 7]: in the series on human skin, the “penetration into or through the skin” value was “do not penetrate into or through the skin” and the “penetration through the skin” value is on record as “no penetration”. Also, in series [1], the “Heat stability … after 5 days” value was “++ (++ means >95% left)”; the “Heat stability … after 50 days” value is listed as “++ (++ means >95% left)”; the “Heat stability … after 100 days” value was “++ (++ means >95% left)”; the “heat stability, in words” value is on record as “very heat stable”.

As to `CCCCC(CC)COC(=O)C(=CC=CN(CCCCCCN(C=CC=C(C(=O)OCC(CC)CCCC)S(=O)(=O)c1ccccc1)Cc1ccccc1)CCCCCCN(C=CC=C(C(=O)OCC(CC)CCCC)S(=O)(=O)c1ccccc1)Cc1ccccc1)S(=O)(=O)c1ccccc1` (centres unmarked) [Compound 18], in series [2], the “Solubility in Finsolv TN, dissolved amount (m/m %) 1%” value (from here on “Solubility in Finsolv TN … (m/m %) 1%”) is “+”; the “Solubility in Finsolv TN, dissolved amount (m/m %) 5%” value (“Solubility in Finsolv TN … (m/m %) 5%” for short) was “−”; the “Solubility in Finsolv TN, dissolved amount (m/m %) 20%” value (“Solubility … (m/m %) 20%” for short) is “−”; the “Solubility in Finsolv TN, dissolved amount (m/m %) 50%” value (from here on “Solubility … (m/m %) 50%”) is recorded as “−”. Besides, in series [2], the “Solubility in Finsolv TN, dissolved amount (m/m %) 80%” value (from here on “Solubility … (m/m %) 80%”) is reported as “−” and the “Solubility in Finsolv TN, dissolved amount (m/m %) 90%” value (from here on “Solubility … (m/m %) 90%”) is reported as “−”. In series [1], the “Heat stability … after 5 days” value was “++ (++ means >95% left)”, the “Heat stability … after 50 days” value is recorded as “++ (++ means >95% left)” and the “Heat stability … after 100 days” value was “++ (++ means >95% left)”.

For `CCCCCCCCOC(=O)C(=CC=CNCCCN(CCCCN(CCCNC=CC=C(C(=O)OCCCCCCCC)S(=O)(=O)c1ccccc1)CCCNC=CC=C(C(=O)OCCCCCCCC)S(=O)(=O)c1ccccc1)CCCNC=CC=C(C(=O)OCCCCCCCC)S(=O)(=O)c1ccccc1)S(=O)(=O)c1ccccc1` [Compound 11, reference compound], in series [1], the “Heat stability … after 5 days” value is listed as “++ (++ means >95% left)”, the “Heat stability … after 50 days” value was “+− (+− implies between 50-95% left)” and the “Heat stability … after 100 days” value is recorded as “− (− indicates <50% left)”.

Regarding `CCCCCCCCOC(=O)C(=CC=CNCCN(CCNC=CC=C(C(=O)OCCCCCCCC)S(=O)(=O)c1ccccc1)CCNC=CC=C(C(=O)OCCCCCCCC)S(=O)(=O)c1ccccc1)S(=O)(=O)c1ccccc1` [Compound 10, reference compound], in series [1], the “Heat stability … after 5 days” value was “++ (++ means >95% left)”, the “Heat stability … after 50 days” value is “+− (+− implies between 50-95% left)” and the “Heat stability … after 100 days” value was “− (− indicates <50% left)”.

Take `CCCCCCCCCCCCCCCCCCOC(=O)C(=CC=CN(CCCCCCN(C=CC=C(C(=O)OCCCCCCCCCCCCCCCCCC)S(=O)(=O)c1ccccc1)Cc1ccccc1)CCCCCCN(C=CC=C(C(=O)OCCCCCCCCCCCCCCCCCC)S(=O)(=O)c1ccccc1)Cc1ccccc1)S(=O)(=O)c1ccccc1` [Compound 19]: in series [2], the “Solubility in Finsolv TN … (m/m %) 1%” value was “+”; the “Solubility in Finsolv TN … (m/m %) 5%” value is “+”; the “Solubility … (m/m %) 20%” value was “+”; the “Solubility … (m/m %) 50%” value is on record as “+”. For the same molecule, in series [2], the “Solubility … (m/m %) 80%” value is “+” and the “Solubility … (m/m %) 90%” value is “+”. Also, in series [1], the “Heat stability … after 5 days” value is “++ (++ means >95% left)”, the “Heat stability … after 50 days” value is “++ (++ means >95% left)” and the “Heat stability … after 100 days” value is given as “++ (++ means >95% left)”.

Consider `CC(C)OC(=O)C(=CC=CN(CCCCCCN(C=CC=C(C(=O)OC(C)C)S(=O)(=O)c1ccccc1)Cc1ccccc1)CCCCCCN(C=CC=C(C(=O)OC(C)C)S(=O)(=O)c1ccccc1)Cc1ccccc1)S(=O)(=O)c1ccccc1` [Compound 17], for which, in series [2], the “Solubility in Finsolv TN … (m/m %) 1%” value is listed as “−”; the “Solubility in Finsolv TN … (m/m %) 5%” value is listed as “−”; the “Solubility … (m/m %) 20%” value is on record as “−”; the “Solubility … (m/m %) 50%” value is listed as “−”. In addition, in series [2], the “Solubility … (m/m %) 80%” value is listed as “−” and the “Solubility … (m/m %) 90%” value is reported as “−”. Besides, in series [1], the “Heat stability … after 5 days” value is “++ (++ means >95% left)”, the “Heat stability … after 50 days” value is listed as “++ (++ means >95% left)” and the “Heat stability … after 100 days” value is “++ (++ means >95% left)”.

As to `CCCCCCCCOC(=O)/C(=C/C=C/NCCCCCCN(/C=C\C=C(/C(=O)OCCCCCCCC)S(=O)(=O)c1ccccc1)CCCCCCN/C=C/C=C(\C(=O)OCCCCCCCC)S(=O)(=O)c1ccccc1)S(=O)(=O)c1ccccc1` [Compound 5, reference compound], in series [1], the “Heat stability … after 5 days” value is “++ (++ means >95% left)”, the “Heat stability … after 50 days” value is “+− (+− implies between 50-95% left)” and the “Heat stability … after 100 days” value was “+− (+− implies between 50-95% left)”.

`CCCCCCCCOC(=O)C(=CC=CN(CCCC)CCN(C=CC=C(C(=O)OCCCCCCCC)S(=O)(=O)c1ccccc1)CCN(C=CC=C(C(=O)OCCCCCCCC)S(=O)(=O)c1ccccc1)CCCC)S(=O)(=O)c1ccccc1` [Compound 13]: in series [2], the “Solubility in Finsolv TN … (m/m %) 1%” value is listed as “+”; the “Solubility in Finsolv TN … (m/m %) 5%” value was “+”; the “Solubility … (m/m %) 20%” value is listed as “+”; the “Solubility … (m/m %) 50%” value is “−”. In series [2], the “Solubility … (m/m %) 80%” value is given as “−” and the “Solubility … (m/m %) 90%” value is “−”. In series [1], the “Heat stability … after 5 days” value is listed as “++ (++ means >95% left)”; the “Heat stability … after 50 days” value is given as “++ (++ means >95% left)”; the “Heat stability … after 100 days” value is “++ (++ means >95% left)”; the “heat stability, in words” value was “very heat stable; also recorded: good heat stability”.
